Measured values from the NIST ThermoML archive (doi:10.1016/j.fluid.2008.03.004).

Test: xn = mol fraction of the nth substance listed
Conditions: 101 kPa, Liquid; for speed of sound: Sing-around technique in a fixed-path interferometer

Cc1ccccc1C [1,2-dimethylbenzene] + COC(C)(C)C
Conditions	mass density [kg/m3]	speed of sound [m/s]
305.65 K, x2 = 0	868.65	–
305.65 K, x2 = 0.052	861.853	–
305.65 K, x2 = 0.101	855.807	–
305.65 K, x2 = 0.203	842.365	–
305.65 K, x2 = 0.303	829.01	–
305.65 K, x2 = 0.401	815.857	–
305.65 K, x2 = 0.499	801.959	–
305.65 K, x2 = 0.604	786.901	–
305.65 K, x2 = 0.707	771.779	–
305.65 K, x2 = 0.8	757.862	–
305.65 K, x2 = 0.9	742.391	–
305.65 K, x2 = 0.95	734.452	–
308.15 K, x2 = 0	866.538	1300.7
308.15 K, x2 = 0.052	859.718	1293.5
308.15 K, x2 = 0.101	853.654	1278.9
308.15 K, x2 = 0.203	840.166	1249.1
308.15 K, x2 = 0.303	826.764	1218.2
308.15 K, x2 = 0.401	813.564	1188.5
308.15 K, x2 = 0.499	799.615	1157
308.15 K, x2 = 0.604	784.495	1124.5
308.15 K, x2 = 0.707	769.312	1089.9
308.15 K, x2 = 0.8	755.336	1058
308.15 K, x2 = 0.9	739.788	1026.9
308.15 K, x2 = 0.95	731.817	1007.3
310.65 K, x2 = 0	864.422	1290.6
310.65 K, x2 = 0.052	857.577	1283.5
310.65 K, x2 = 0.101	851.495	1268.9
310.65 K, x2 = 0.203	837.963	1238.9
310.65 K, x2 = 0.303	824.515	1207.9
310.65 K, x2 = 0.401	811.267	1178
310.65 K, x2 = 0.499	797.264	1146.5
310.65 K, x2 = 0.604	782.083	1113.6
310.65 K, x2 = 0.707	766.837	1078.8
310.65 K, x2 = 0.8	752.799	1046.9
310.65 K, x2 = 0.9	737.174	1015.4
310.65 K, x2 = 0.95	729.169	996.05
313.15 K, x2 = 0	862.302	1280.6
313.15 K, x2 = 0.052	855.433	1273.4
313.15 K, x2 = 0.101	849.333	1258.9
313.15 K, x2 = 0.203	835.755	1228.7
313.15 K, x2 = 0.303	822.257	1197.6
313.15 K, x2 = 0.401	808.961	1167.5
313.15 K, x2 = 0.499	794.906	1135.9
313.15 K, x2 = 0.604	779.664	1102.8
313.15 K, x2 = 0.707	764.349	1067.7
313.15 K, x2 = 0.8	750.25	1035.9
313.15 K, x2 = 0.9	734.547	1003.8
313.15 K, x2 = 0.95	726.508	984.72
315.65 K, x2 = 0	860.179	1270.5
315.65 K, x2 = 0.052	853.286	1263.4
315.65 K, x2 = 0.101	847.168	1248.9
315.65 K, x2 = 0.203	833.542	1218.5
315.65 K, x2 = 0.303	819.996	1187.3
315.65 K, x2 = 0.401	806.651	1157.1
315.65 K, x2 = 0.499	792.544	1125.3
315.65 K, x2 = 0.604	777.236	1092
315.65 K, x2 = 0.707	761.858	1056.8
315.65 K, x2 = 0.8	747.693	1024.9
315.65 K, x2 = 0.9	731.912	992.02
315.65 K, x2 = 0.95	723.834	973.42
318.15 K, x2 = 0	858.054	1260.6
318.15 K, x2 = 0.052	851.136	1253.5
318.15 K, x2 = 0.101	845	1239
318.15 K, x2 = 0.203	831.325	1208.4
318.15 K, x2 = 0.303	817.731	1177.1
318.15 K, x2 = 0.401	804.337	1146.7
318.15 K, x2 = 0.499	790.173	1114.9
318.15 K, x2 = 0.604	774.802	1081.2
318.15 K, x2 = 0.707	759.355	1045.8
318.15 K, x2 = 0.8	745.123	1014
318.15 K, x2 = 0.9	729.271	980.41
318.15 K, x2 = 0.95	721.145	962.22
320.65 K, x2 = 0	855.927	1250.7
320.65 K, x2 = 0.052	848.981	1243.6
320.65 K, x2 = 0.101	842.834	1229.1
320.65 K, x2 = 0.203	829.108	1198.3
320.65 K, x2 = 0.303	815.461	1166.9
320.65 K, x2 = 0.401	802.016	1136.4
320.65 K, x2 = 0.499	787.797	1104.4
320.65 K, x2 = 0.604	772.358	1070.5
320.65 K, x2 = 0.707	756.834	1034.8
320.65 K, x2 = 0.8	742.544	1003.2
320.65 K, x2 = 0.9	726.621	968.31
320.65 K, x2 = 0.95	718.446	951.04
323.15 K, x2 = 0	853.803	1240.9
323.15 K, x2 = 0.052	846.833	1233.9
323.15 K, x2 = 0.101	840.678	1219.5
323.15 K, x2 = 0.203	826.892	1188.3
323.15 K, x2 = 0.303	813.194	1156.9
323.15 K, x2 = 0.401	799.699	1126.2
323.15 K, x2 = 0.499	785.421	1094.1
323.15 K, x2 = 0.604	769.917	1059.9
323.15 K, x2 = 0.707	754.356	1024.2
323.15 K, x2 = 0.8	739.964	992.41
323.15 K, x2 = 0.9	723.991	957.28
323.15 K, x2 = 0.95	715.742	940.07
